Source: patent publication US20190159451A1, “ACTIVE COMPOUND COMBINATIONS AND METHODS TO PROTECT THE PROPAGATION MATERIAL OF PLANTS” (Bayer CropScience Aktiengesellschaft, priority 2016, published 2019)

Experiments:
Ctenocephalides felis = Ctenocephalides felis in-vitro contact test, adult cat flea; format: in vivo; details: 5 μg/cm^2 (=500 g/ha), after 48 hours
Description: Ctenocephalides felis—In-Vitro Contact Tests Adult Cat Flea
9 mg compound is solved in 1 ml acetone and diluted with acetone to the desired concentration. 250 μl of the test solution is filled in 25 ml glass test tubes and homogeneously distributed on the inner walls by rotation and tilting on a shaking device (2 h at 30 rpm). With a compound concentration of 900 ppm, an inner surface of 44.7 cm^2 and a homogeneous distribution, a dose of […] is achieved.
After the solvent has evaporated, each test tube is filled with 5-10 adult cat fleas (Ctenocephalides felis), closed with a perforated lid and incubated in a lying position at room temperature and relative humidity. After 48 hours efficacy is determined. The fleas are patted on the ground of the tubes and are incubated on a heating plate at 45-50° C. for at most 5 minutes. Immotile or uncoordinated moving fleas, which are not able to escape the heat by climbing upwards, are marked as dead or moribund.
An efficacy of 100% means all fleas are dead or moribund; 0% means no fleas are dead or moribund.

Lucilia cuprina = Lucilia cuprina test (LUCICU); format: in vivo; details: 48 h
Description: Lucilia cuprina—Test (LUCICU)
(§1) Solvent: dimethyl sulfoxide
10 mg active compound are dissolved in 0.5 ml Dimethylsulfoxid. Serial dilutions are made to obtain the desired rates.
Approximately 20 1st instar larvae of the Australian sheep blowfly (Lucilia cuprina) are transferred into a test tube containing minced horse meat and compound solution of the desired concentration.
After 2 days mortality in % is determined. 100% means all the larvae have been killed; 0% means none of the larvae have been killed.

Musca domestica = Musca domestica test (MUSCDO); format: in vivo; details: for mortality: after 2 days, adult house flies
Description: Musca domestica—Test (MUSCDO)
as §1
To produce a suitable preparation of active compound, 10 mg of active compound are dissolved in 0.5 ml solvent, and the concentrate is diluted with water to the desired concentration.
10 adult house flies (Musca domestica) are transferred into a container, containing a sponge soaked with a mixture of sugar solution and compound solution of the desired concentration.
After 2 days mortality in % is determined. 100% means all the flies have been killed; 0% means none of the flies have been killed.

Diabrotica balteata = Diabrotica balteata spray test; format: in vivo; details: 160 μg/well, after 7 days, larvae on germinated wheat seeds
Description: Diabrotica balteata—Spray Test
(§2) Solvent: 78.0 parts by weight of acetone • • 1.5 parts by weight of dimethylformamide
(§3) Emulsifier: alkylarylpolyglycol ether
(§4) To produce a suitable preparation of active compound, 1 part by weight of active compound is mixed with the stated amount of solvent, and the concentrate is diluted with water, containing an emulsifier concentration of 1000 ppm, to the desired concentration. Further test concentrations are prepared by dilution with emulsifier containing water.
Soaked wheat seeds (Triticum aestivum) are placed in a multiple well plate filled with agar and some water and are incubated for 1 day to germinate (5 seeds per well). The germinated wheat seeds are sprayed with a test solution containing the desired concentration of the active ingredient. Afterwards each unit is infected with 10-20 larvae of the banded cucumber beetle (Diabrotica balteata).
After 7 days efficacy in % is determined. 100% means all the seedlings have grown up like in the untreated, uninfected control; 0% means none of the seedlings have grown.

Myzus persicae [1] = assay: Myzus persicae spray test; format: in vivo; details: for mortality: 100 g/ha, after 6 days, Chinese cabbage leaf disks
Description: Myzus persicae—Spray Test
(§5) Solvent: 78.0 parts by weight acetone • 1.5 parts by weight dimethylformamide
as §3
as §4, with “solvents” for “solvent,”, “and” for “and the concentrate”
Chinese cabbage (Brassica pekinensis) leaf disks infected with all instars of the green peach aphid (Myzus persicae), are sprayed with a preparation of the active ingredient of the desired concentration.
After 6 days mortality in % is determined. 100% means all aphids have been killed and 0% means none of the aphids have been killed.

Log P (HCOOH) = format: physicochemical; details: HCOOH (formic acid); read-out: Log P-Wert (HCOOH)
Myzus persicae [2] = assay: Myzus persicae oral test; format: in vivo
Description: Solvent: 100 parts by weight acetone
To produce a suitable preparation of active compound, 1 part by weight of active compound is mixed with the stated amount of solvent, and the concentrate is diluted with water to the desired concentration. 50 μl compound solution is filled in microtiter plates and 150 μl IPL41 insect medium (33%+15% sugar) is added to obtain a total volume of […] per well. Afterwards the plates are sealed with parafilm through which a mixed population of the green peach aphid (Myzus persicae) can suck on the compound preparation.
After 5 days mortality in % is determined. 100% means all aphids have been killed and 0% means none of the aphids have been killed.

Nezara viridula = Nezara viridula spray test; format: in vivo
Description: Nezara viridula—Spray Test
as §2, §3, §4
Barley plants (Hordeum vulgare) infested with larvae of the southern green stink bug (Nezara viridula) are sprayed with a test solution containing the desired concentration of the active ingredient.
After 4 days mortality in % is determined. 100% means all the stink bugs have been killed; 0% means none of the stink bugs have been killed.

Nilaparvata lugens = Nilaparvata lugens spray test; format: in vivo
Description: Nilaparvata lugens—Spray Test
as §2, §3
as §4, with “solvents” for “solvent,”, “and” for “and the concentrate”
Rice plants (Oryza sativa) are sprayed with a preparation of the active ingredient of the desired concentration and the plants are infested with the brown planthopper (Nilaparvata lugens).
After 4 days mortality in % is determined. 100% means all planthoppers have been killed and 0% means none of the planthoppers have been killed.

Tetranychus urticae = assay: whole plant or invertebrate; format: in vivo; details: in Phaseolus vulgaris, foliar, 144 h
Description: Tetranychus urticae—Spray Test OP-Resistant
as §5, §3
as §4, with “solvents” for “solvent,”, “and” for “and the concentrate”
French bean (Phaseolus vulgaris) leaf disks infected with all instars of the two spotted spidermite (Tetranychus urticae), are sprayed with a preparation of the active ingredient of the desired concentration.
After 6 days mortality in % is determined. 100% means all spider mites have been killed and 0% means none of the spider mites have been killed.

Phaedon cochleariae = Phaedon cochleariae spray test; format: in vivo; details: 20 g/ha, after 7 days, larvae on Chinese cabbage leaf disks
Description: Phaedon cochleariae—Spray Test
as §2, §3
as §4, with “solvents” for “solvent,”, “and” for “and the concentrate”
Chinese cabbage (Brassica pekinensis) leaf disks are sprayed with a preparation of the active ingredient of the desired concentration. Once dry, the leaf disks are infested with mustard beetle larvae (Phaedon cochleariae).
After 7 days mortality in % is determined. 100% means all beetle larvae have been killed and 0% means none of the beetle larvae have been killed.

[3] = Myzus persicae, in Brassica rapa, foliar, 144 h

With `O=C(/C=C1\SCCN1Cc1ccc(Cl)nc1)C(F)(F)F` [Example I-1, 3-[3-[(6-Chloro-3-pyridinyl)methyl]-2-thiazolidinylidene]-1,1,1-trifluoro-2-propanone] the “efficacy (fleas dead or moribund)” value (Ctenocephalides felis) was 100%, the mortality at 100 ppm (Lucilia cuprina) was 100% and the mortality at 4 ppm (Musca domestica; Musca domestica, 48 h) was 90%. The “efficacy (seedlings grown)” value (Diabrotica balteata) was 100%, the mortality at 100 g/ha (Myzus persicae [1]; [3]) was 90% and the chromatographic logP (Log P (HCOOH)) was 2.21.

For `O=C(/C=C1\SCCN1Cc1ccc(F)nc1)C(F)(F)F` [Example I-2, 3-[3-[(6-Fluoro-3-pyridinyl)methyl]-2-thiazolidinylidene]-1,1,1-trifluoro-2-propanone], the “efficacy (fleas dead or moribund)” value (Ctenocephalides felis) was 100%, the mortality at 100 ppm (Lucilia cuprina) was 100% and the mortality at 4 ppm (Musca domestica; Musca domestica, 48 h) was 80%. The mortality at 20 ppm (Musca domestica; Musca domestica, 48 h) was 95%, the “efficacy (seedlings grown)” value (Diabrotica balteata) was 100% and the mortality at 20 ppm (Myzus persicae [2]; Myzus persicae, po, 120 h) was 100%. For the same molecule, the mortality at 500 g/ha (Myzus persicae [1]; [3]) was 100%, the mortality at 500 g/ha (Nezara viridula; Nezara viridula, in Hordeum vulgare, 96 h) was 90% and the mortality at 500 g/ha (Nilaparvata lugens; Nilaparvata lugens, in Oryza sativa, 96 h) was 100%. It also gave a mortality at 500 g/ha (Tetranychus urticae) of 80% and a chromatographic logP (Log P (HCOOH)) of 2.25.

For `O=C(/C=C1\NCCN1Cc1ccc(Br)nc1)C(F)(F)F` [Example I-3, 3-[1-[(6-Bromo-3-pyridinyl)methyl]-2-imidazolidinylidene]-1,1,1-trifluoro-2-propanone], the “efficacy (fleas dead or moribund)” value (Ctenocephalides felis) was 100%, the mortality at 100 ppm (Lucilia cuprina) was 100% and the mortality at 4 ppm (Musca domestica; Musca domestica, 48 h) was 80%. For the same molecule, the “efficacy (seedlings grown)” value (Diabrotica balteata) was 100% and the mortality at 100 g/ha (Myzus persicae [1]; [3]) was 90%.

With `O=C(C=C1SCCN1Cc1ccc(Br)nc1)C(F)(F)F` [Example I-4] the “efficacy (fleas dead or moribund)” value (Ctenocephalides felis) was 100%, the mortality (Musca domestica; 4 ppm) was 100% and the “efficacy (seedlings grown)” value (Diabrotica balteata) was 100%.

For `O=C(C=C1NCCN1Cc1ccc(Cl)nc1)C(F)(F)F` [Example I-5], the “efficacy (fleas dead or moribund)” value (Ctenocephalides felis) was 100% and the mortality (Musca domestica; 4 ppm) was 100%.

With `O=C(C=C1NCCCN1Cc1ccc(F)nc1)C(F)(F)F` [Example I-6] the “efficacy (fleas dead or moribund)” value (Ctenocephalides felis) was 100%, the mortality (Musca domestica; 20 ppm) was 100% and the “efficacy (seedlings grown)” value (Diabrotica balteata) was 100%.

For `O=C(C=C1NCCCN1Cc1ccc(Cl)nc1)C(F)(F)F` [Example I-7], the “efficacy (fleas dead or moribund)” value (Ctenocephalides felis) was 100%, the mortality (Myzus persicae [1]) was 90% and the mortality (Phaedon cochleariae) was 100%.

For `O=C(C=C1NCCCN1Cc1ccc(Br)nc1)C(F)(F)F` [Example I-8], the “efficacy (fleas dead or moribund)” value (Ctenocephalides felis) was 100%, the mortality (Musca domestica; 20 ppm) was 100% and the “efficacy (seedlings grown)” value (Diabrotica balteata) was 100%. The mortality (Myzus persicae [2]; 20 ppm, after 5 days, oral) was 100%, the mortality (Myzus persicae [1]) was 90% and the mortality (Nezara viridula; 500 g/ha, after 4 days, larvae on barley plants) was 90%. For the same molecule, the mortality (Nilaparvata lugens; 500 g/ha, after 4 days, rice plants) was 100% and the mortality (Phaedon cochleariae) was 100%.
